In patent US8815831B2, “Treatment of Acinetobacter with alginate oligomers and antibiotics” (priority 2009, dated 2014):

Key:
[1] = test system: Multidrug resistant Acinetobacter baumannii isolated from a source in Libya; assay: Minimum Inhibitory Concentration assay (96-well, CAMHB), Examples 1 and 2
Experimental: Antibiotics were diluted in cation-adjusted Mueller-Hinton broth (CAMHB) or CAMHB with G-fragments (Oligo CF-5/20 90-95% G residues) at 2%, 6% or 10%.
Bacterial cultures at 0.5 McFarland standard were diluted ten-fold in CAMHB and 5 μl added to the microtiter plates containing the antibiotic serial dilutions. Plates were wrapped in parafilm and incubated at 37° C. for 16-20 hours. MIC values for each antibiotic were determined as the lowest concentration at which there was no visible growth.

[2] = test system: Staphylococcus aureus NCTC 6571 MIC CONTROL STRAIN (Oxford Staph.); assay: Minimum Inhibitory Concentration assay (96-well, CAMHB), Example 1; format: cell-based; conditions: S. Aur
[3] = test system: Acinetobacter strains; assay: MIC assays of Example 3, Tables 3 and 4 taken together; format: cell-based, Acinetobacter baumannii and Acinetobacter Iwoffii; conditions: in one Acinetobacter strain or another
Experimental: (§1) MIC assays as described in Example 1 were conducted using the following Acinetobacter strains, antibiotics and concentrations of OligoCF-5/20 as described in Tables 3 and 4.
(§2) • V19* 7789 Acinetobacter baumannii • V20* 8065 Acinetobacter Iwoffii MDR Strains • V4* MDR ACB (Libya) Acinetobacter baumannii • V9* (Egypt) Acinetobacter baumannii • V10* (Egypt) Acinetobacter Iwoffii • V22* 6056 Acinetobacter Iwoffii
Further MIC assays were conducted with the various strains and antibiotics recited in Table 4 using the following protocol.

[4] = test system: Acinetobacter baumannii strains V9, V19; assay: MIC assays as described in Example 1, Example 3 (Table 3); format: cell-based; conditions: strain V19
Experimental: as §1, §2

[5] = A. bau, +2% G (G-fragments Oligo CF-5/20)
[6] = A. bau, +6% G (G-fragments Oligo CF-5/20)
[7] = A. bau, +10% G (G-fragments Oligo CF-5/20)
[8] = +2% G (G-fragments Oligo CF-5/20)
[9] = +6% G (G-fragments Oligo CF-5/20)
[10] = +10% G (G-fragments Oligo CF-5/20)

CC[C@H]1OC(=O)[C@H](C)[C@@H](O[C@H]2C[C@@](C)(OC)[C@@H](O)[C@H](C)O2)[C@H](C)[C@@H](O[C@@H]2O[C@H](C)C[C@H](N(C)C)[C@H]2O)[C@](C)(O)C[C@@H](C)CN(C)[C@H](C)[C@@H](O)[C@]1(C)O [azithromycin]
inhibition of growth by azithromycin combined with G-fragments ([1]; 4 μg/ml azithromycin and 2% or more G-fragments): completely inhibited
MIC value, Ceftazidime with azithromycin at 4 μg/ml [1, 5]: <4 μg/ml Az
MIC value, Ceftazidime with azithromycin at 8 μg/ml [1, 5]: <8 μg/ml Az
MIC value, Ciprofloxacin with azithromycin at 8 μg/ml [1, 5]: <8 μg/ml Az
MIC value, Ciprofloxacin with azithromycin at 4 μg/ml: azithromycin part of the inhibitory combination ([1]; A. bau, +2% G (G-fragments Oligo CF-5/20), together with 64 Cpr): 4 µg/mL
MIC value, Ceftazidime with azithromycin at 4 μg/ml [1, 6]: <4 μg/ml Az
MIC value, Ceftazidime with azithromycin at 8 μg/ml [1, 6]: <8 μg/ml Az
MIC value, Ciprofloxacin with azithromycin at 4 μg/ml [1, 6]: <4 μg/ml Az
MIC value, Ciprofloxacin with azithromycin at 8 μg/ml [1, 6]: <8 μg/ml Az
MIC value, Ceftazidime with azithromycin at 4 μg/ml [1, 7]: <4 μg/ml Az
MIC value, Ceftazidime with azithromycin at 8 μg/ml [1, 7]: <8 μg/ml Az
MIC value, Ciprofloxacin with azithromycin at 4 μg/ml [1, 7]: <4 μg/ml Az
MIC value, Ciprofloxacin with azithromycin at 8 μg/ml [1, 7]: <8 μg/ml Az
effect of OligoCF-5/20 on the MIC value for azithromycin ([1]; Acinetobacter organism, azithromycin 8 or 4 μg/ml): greatly reduces
inhibition of growth by azithromycin in the absence of G-fragments ([1]; azithromycin at 4 μg/ml and at 8 μg/ml, no G-fragments): not capable of inhibiting growth
MIC value, Ceftazidime with azithromycin at 4 μg/ml ([2]; 0 G (no G-fragments)): <4 μg/ml Az
MIC value, Ceftazidime with azithromycin at 8 μg/ml ([2]; 0 G (no G-fragments)): <8 μg/ml Az
MIC value, Ciprofloxacin with azithromycin at 4 μg/ml ([2]; 0 G (no G-fragments)): <4 μg/ml Az
MIC value, Ciprofloxacin with azithromycin at 8 μg/ml ([2]; 0 G (no G-fragments)): <8 μg/ml Az
MIC value, Ceftazidime with azithromycin at 4 μg/ml [2, 8]: <4 μg/ml Az
MIC value, Ceftazidime with azithromycin at 8 μg/ml [2, 8]: <8 μg/ml Az
MIC value, Ciprofloxacin with azithromycin at 4 μg/ml [2, 8]: <4 μg/ml Az
MIC value, Ciprofloxacin with azithromycin at 8 μg/ml [2, 8]: <8 μg/ml Az
MIC value, Ceftazidime with azithromycin at 4 μg/ml [2, 9]: <4 μg/ml Az
MIC value, Ceftazidime with azithromycin at 8 μg/ml [2, 9]: <8 μg/ml Az
MIC value, Ciprofloxacin with azithromycin at 4 μg/ml [2, 9]: <4 μg/ml Az
MIC value, Ciprofloxacin with azithromycin at 8 μg/ml [2, 9]: <8 μg/ml Az
MIC value, Ceftazidime with azithromycin at 4 μg/ml [2, 10]: <4 μg/ml Az
MIC value, Ceftazidime with azithromycin at 8 μg/ml [2, 10]: <8 μg/ml Az
MIC value, Ciprofloxacin with azithromycin at 4 μg/ml [2, 10]: <4 μg/ml Az
MIC value, Ciprofloxacin with azithromycin at 8 μg/ml [2, 10]: <8 μg/ml Az
effect of increasing concentrations of OligoCF-5/20 (0-10%) on MIC values (Tables 3 and 4) [3]: decreases MIC values

C[C@@H](O)[C@H]1C(=O)N2C(C(=O)O)=C(SCCN=CN)C[C@H]12 [imipenem]
effect of increasing concentrations of OligoCF-5/20 on MIC values (Table 3) [4]: no effect

CC[C@H]1OC(=O)[C@H](C)[C@@H](O[C@H]2C[C@@](C)(OC)[C@@H](O)[C@H](C)O2)[C@H](C)[C@@H](O[C@@H]2O[C@H](C)C[C@H](N(C)C)[C@H]2O)[C@](C)(O)C[C@@H](C)/C(=N\OCOCCOC)[C@H](C)[C@@H](O)[C@]1(C)O [roxithromycin]
effect of increasing concentrations of OligoCF-5/20 (0-10%) on MIC values (Tables 3 and 4) [3]: decreases MIC values
